{"source": "patent US20260315653A1", "about": "“ANTICOAGULANT COMPOSITIONS COMPRISING ANTI-PLATELET AND ANTI-INFLAMMATORY DRUGS AND METHODS AND DEVICES FOR THEIR USE” (Elixir Medical Corporation, priority 2023, published 2026)", "key": {"Factor IIa": {"tested_on": "Factor IIa", "conditions": "cited from earlier work"}, "[1]": {"tested_on": "blood clotting (citrated sheep blood)", "assay": "Activated clotting time (ACT) in citrated sheep blood (Example 2)", "conditions": "single drug, 0.6 ng/mg", "procedure": "The activated clotting time (ACT) evaluation of anticoagulants was performed in calcium citrate sheep blood and recorded employing the Hemochron® Response device.\nThe ACT measurements were made in citrated sheep blood. 1.9 ml of citrated sheep blood was added to a test tube containing an activator (Hemochron@Celite@ ACT tubes, Lot F8FTE026 from Accriva Diagnostics, Inc.). A target amount of drug solution was then added into the test tube. The test tube was gently swirled so that the blood and drug was well-mixed. 0.1 ml of 0.3M calcium chloride was then added. The tube was gently shaken before being inserted into the Hemochron Response detector. The ACT read out was recorded and reported. The ACT of the control blood in the absence of any drug as first determined to establish a baseline. Then ACT was determined in the presence of different concentrations of the drug as a single component. Selected drug combinations were then tested to evaluate for potential synergy in action between the two drugs."}, "[2]": {"tested_on": "blood clotting (heparinized sheep blood)", "assay": "Net ACT initiated by platelet activation factor (PAF) and CaCl2 in heparinized sheep blood (Examples 6-11)", "conditions": "single drug, 0.05 ng/mg; PAF & CaCl2; blood control 235 seconds", "procedure": "In order to examine the potential synergistic effects between anti-inflammatory agents, direct factor Xa inhibitors, direct factor IIa inhibitors, antiplatelets (P2Y12 inhibitor and glycoprotein IIb/IIIa inhibitor, platelet activation factor and CaCl2 were utilized by measuring ACT. Heparinized sheep blood was used to preserve platelet function.\nThe activated clotting time (ACT) evaluation initiated by platelet activation factor (PAF) and calcium chloride (CaCl2) was performed in heparinized sheep blood and recorded employing the Hemochron® Response device. […] A target amount of drug solution was then added into the test tube. The test tube was gently swirled so that the blood and drug were well-mixed. […] The tube was gently shaken before being inserted into the Hemochron Response detector. The ACT read out was recorded and reported. The ACT of the control heparinized sheep blood in the absence of any drug as first measured to establish a baseline. […] Then ACT was measured in the presence of different concentrations of the drug measured. Selected drug combinations were then tested to evaluate for potential synergy in action between the drug combination. The net ACT (ACT minus blood control ACT) was utilized to visualize the synergistic effect. […] The figures are presented in ng/mg wherein the density of blood and tissue are approximately the same."}, "[3]": {"tested_on": "Human Aortic SMC (HAoSMC)", "assay": "HAoSMC cell proliferation assay (CellTiter Aqueous, 72 hours)", "assay_type": "cell-based", "procedure": "Cell proliferation assay was done in 96-well format. Low passage cells were trypsinized and seeded in 96 well plates at a density of ~4000 cells/well. The cells are allowed to attach overnight in a CO2 incubator. Next day, the medium was removed and replaced with fresh complete medium containing various concentrations of the test compounds. The final concentration of vehicle (DMSO) in the test medium was 0.1%. After adding test compounds, the cells were incubated for 72 hours. Following this period, the medium was removed and then added fresh medium (100 μl) containing CellTiter Aqueous (1× concentration final) to the wells and incubated for 2 hours in the CO2 incubator. At the end of incubation measured […] with a plate-reader. Controlled incubations with untreated cells and blank incubations containing only medium were included and tested similarly. Based on the cell viability assay the percentage inhibition of the cell proliferation was determined at the different concentrations of the drug tested.\nFollowing the cell proliferation assay as indicated earlier, the percent cell proliferation inhibition was determined, and the assay results plotted to determine the IC50."}, "[4]": {"assay": "In vivo drug release from / drug remaining on implanted stents (HPLC)", "design": "species or system porcine", "conditions": "14 mm stents, day 7, n = 3", "procedure": "The percentage and/or amount of each anticoagulant drug for or by each time point indicated were analyzed for each stent from the different devices in the example and the average drug tissue concentration reported.\nTissue concentrations and the amount of drug released from the stents were measured using stents implanted in porcine arteries for the drugs as indicated. The arteries at the designated time point were excised and a length of stented artery spanning from 5 mm proximal to the stented segment to 5 mm distal to the stented segment was cut. The stented artery was cut longitudinally with surgical scissors. The stents were separated from the tissue. The tissue content of each drug was analyzed using liquid chromatography mass spectroscopy (LCMS) and reported as a mean for each of the timepoint indicated. For drug remaining on each stent, each drug was extracted from the stent, measured using HPLC, and reported as a mean for each of the timepoint indicated as drug released or drug remaining on a stent (where drug remaining is equal to 100% minus the percentage of drug released)."}, "porcine coronary artery": {"tested_on": "porcine coronary artery", "assay": "In vivo porcine coronary stent implantation: fibrin score and late lumen loss (Examples 25-26)", "conditions": "Table 9, day 7", "procedure": "The drug eluting stent systems containing different anticoagulants prepared as described in Example 11 were evaluated at 3 hours, 6 hours, 1 day, 3 days, 6 days, 7 days, or 28 days following implantation in a porcine coronary artery model.\nThe porcine model was chosen as this model has been used extensively for stent and angioplasty studies resulting in a large volume of data on the vascular response properties and its correlation to human vascular response (Schwartz et al, Circulation. 2002; 106:1867 1873). The animals were housed and cared for in accordance with the Guide for the Care and Use of Laboratory Animals as established by the National Research Council.\nAfter induction of anesthesia, the left or right femoral artery was accessed using standard techniques and an arterial sheath was introduced and advanced into the artery. Vessel angiography was performed under fluoroscopic guidance, a 7 Fr. guide catheter was inserted through the sheath and advanced to the appropriate location where intracoronary nitroglycerin was administered. An appropriate implantation segment of coronary artery was randomly selected and a 0.014″ guidewire inserted. Quantitative Coronary Angiography (QCA) was performed to document the results. The appropriately size stent was advanced to the deployment site. The balloon was inflated at a steady rate to a pressure sufficient to achieve a balloon to artery ratio of approximately 1.1 to 1.0.\nFollow up angiography was performed at the designated timepoint for each of the animals. Late lumen loss (LLL) can be expressed as: […]\nThe LLL is an indicator of the amount smooth muscle cell (SMC) proliferation or inhibition. It is used to measure efficacy between drugs for SMC proliferation inhibition. The smaller the LLL, the better the efficacy of the drug.\nStented portions of coronary arteries were embedded in methyl methacrylate (MMA), then divided into a target of at least three blocks of approximately similar lengths for histology evaluation. Quantitative histopathological evaluation of stented artery sections was then performed and scored as indicated. For Fibrin formation, scores ranged from 0 to 3, with a score of 0 indicating absent or rare minimal spotting around struts of the stent, a score of 1 indicating the presence of fibrin in small amounts localized only around the struts, a score of 2 indicating the moderately abundant or denser presence of fibrin around and extending beyond the struts, and a score of 3 indicating the presence of abundant and dense fibrin and/or bridging of the fibrin between the struts. The mean score was calculated and reported. The mean of each section was then averaged to provide a mean fibrin score per stent. The smaller the fibrin score, the better efficacy."}, "[5]": {"tested_on": "platelets (Tissue factor generated antiplatelet)", "conditions": "cited from earlier work"}, "[6]": {"tested_on": "blood clotting (citrated sheep blood)", "assay": "Net activated clotting time (net ACT) in citrated sheep blood (Examples 3-5)", "design": "key: seconds; measured ACT minus blood control ACT (165 s)", "conditions": "single drug, blood control 165 seconds", "procedure": "The activated clotting time (ACT) evaluation of anticoagulants was performed in calcium citrate sheep blood and recorded employing the Hemochron® Response device. The ACT measurements were made in citrated sheep blood. 1.9 ml of citrated sheep blood was added to a test tube containing an activator (Hemochron@Celite@ ACT tubes, Lot F8FTE026 from Accriva Diagnostics, Inc.). A target amount of drug solution was then added into the test tube. The test tube was gently swirled so that the blood and drug were well-mixed. 0.1 ml of 0.3M calcium chloride was then added. The tube was gently shaken before being inserted into the Hemochron Response detector. The ACT read out was recorded and reported. The ACT of the control blood in the absence of any drug as first determined to establish a baseline. Here the blood control measured is 165 seconds. Then ACT was determined in the presence of different concentrations of the drug as a single component. In the following study, the net ACT (measured ACT minus blood control ACT) was utilized to visualize the synergistic effect of direct factor Xa inhibitor (Rivaroxaban) and direct factor IIa inhibitor (Argatroban) drug combinations. The figures are presented in ng/mg wherein the density of blood and tissue are approximately the same.\nExample 4 is the continuation of example 3, which employed the same method as in example 3. The only difference is that the direct factor Xa inhibitor Edoxaban is used in place of direct factor Xa inhibitor Rivaroxaban.\nExample 5 is the continuation of example 3, which employed the same method as in example 3. The only difference is that the direct factor Xa inhibitor Betrixaban is used in place of direct factor Xa inhibitor Rivaroxaban."}}, "note": "Where “and” joins values, the source holds several entries; their conditions need not be identical. Equal values may be shown once."}
{"smiles": "CC1CNc2c(cccc2S(=O)(=O)N[C@@H](CCCNC(=N)N)C(=O)N2CC[C@@H](C)C[C@@H]2C(=O)O)C1", "note": "(stereo partly drawn) [Argatroban]", "values": [{"measurement": "IC50 for Anti-Factor IIa", "setting": "Factor IIa", "result": 0.0107, "unit": "ng/mg"}, {"measurement": "IC50", "setting": "Factor IIa; read-out: IC50 for Anti-Factor IIa", "result": 0.021, "unit": "µM"}, {"measurement": "ACT", "setting": "[1]", "result": 301}, {"measurement": "net ACT", "setting": "[2]", "result": 56, "unit": "s"}, {"measurement": "HAoSMC proliferation inhibition", "setting": "[3]", "result": "small to no inhibition"}, {"measurement": "Cumulative Percent Release of drug by day 7: Argatroban", "setting": "[4]", "result": "at least 96.9%"}, {"measurement": "LLL / smooth muscle cell proliferation compared to bare metal control stents", "setting": "porcine coronary artery", "result": "larger LLLs compared to control"}, {"measurement": "inhibition of fibrin formation compared to bare metal control stents", "setting": "porcine coronary artery", "result": "not effective at inhibiting fibrin formation"}, {"measurement": "IC50", "setting": "[5]", "result": 0.079, "unit": "µM"}, {"measurement": "IC50 for Tissue factor generated antiplatelet", "setting": "[5]", "result": 0.04, "unit": "ng/mg"}, {"measurement": "net ACT", "setting": "[6]; 0.15 ng/mg", "result": "42 and 46"}, {"measurement": "net ACT", "setting": "[6]; 0.3 ng/mg", "result": 54}]}
